Data from patent US11135214B2, “Methods for enhancing the bio availability and exposure of a voltage-gated potassium channel opener” (priority 2018, dated 2021).
Values joined by “and” are separate entries in the source; they are usually repeats but may differ in a detail not shown here. Identical values can stand only once. Like-named read-outs stand apart in the source and are kept apart here.

Test: Food effect study, oral capsule, plasma PK in non-human primate
Type: in vivo, Cynomolgus monkeys
Conditions: for AUC(0-inf): read-out: AUCinfobs
Method: The following study was conducted to determine the effect of food when Compound A is orally administered to a non-human primate.
Three (n=3) Cynomolgus monkeys of Vietnamese origin were used in this study. At the time of initial dose administration, the monkeys weighed 4.7 to 5.1 kg and were about 4.5 years of age.
A certified primate diet (Teklad® Certified Diet 2050C) was fed during the study. For Group 1, the three monkeys were fasted overnight with food returned 4 hours post-dose. For Group 2, the same three monkeys were fasted overnight and offered food about 1 hour prior to dosing and food was returned at 4 hours post-dose. The following Table 1 gives the food consumption for Group 2:
The oral dosage units consisted of about 3 mg/kg of Compound A in a capsule. The capsules were filled the morning of the dose administration and kept at room temperature until dosing. The remaining capsules were placed into the −20° C. storage.
The capsules were placed as far back in the animal's mouth as possible using a pill gun or a modified gavage tube. Approximately 10 mL of water was administered via syringe to ensure complete delivery of the intended dose. Each animal received 1 capsule per dose. The same animals were dosed twice with a 96 hour washout period between doses.
Group 1: All animals were weighed the afternoon prior to dose administration. Animal #2 struggled with dosing. After several attempts, the animal was given a short break and finally dosed successfully.
Group 2: All animals were weighed the morning of dose administration. All animals were dosed without incident.
Whole blood (˜2.0 mL) was collected using syringe and needle from cephalic or saphenous veins and transferred into vacutainer tubes containing K2EDTA and kept on wet ice until processed for plasma. Blood samples were collected at time of dosing (0.0 hours, time zero) and at 0.5, 1, 2, 4, 8, 12, 24 and 48 hours post-dose.
The whole blood samples were placed in a K2EDTA tube and centrifuged at 3200 RPM for 10 minutes at approximately 5° C. Plasma samples were divided into 2 aliquots and each aliquot directly transferred to appropriately labeled, individual tubes containing study number, collection time point, animal ID number, and sample description. One aliquot was placed into storage at −20±5° C. until shipment for analysis. The other aliquot was retained at −20±5° C. Red blood cells were disposed.
All samples were processed per standard protocol for bioanalytical analysis.

[1] = Cynomolgus (Vietnamese origin), cynomolgus monkey, plasma, po, 3 mg/kg, Group 2 (fed), 3 mg/kg capsule, individual subjects
[2] = Cynomolgus, Vietnamese origin, cynomolgus monkey, plasma, po, 3 mg/kg, Group 1 (fasted), 3 mg/kg capsule, Mean
[3] = Group 1 (fasted), 3 mg/kg capsule, individual subjects, 3 mg/kg
[4] = Group 2 (fed), 3 mg/kg capsule, individual subjects, 3 mg/kg
[5] = cynomolgus monkey, plasma, po, 3 mg/kg, Group 2 (fed), 3 mg/kg capsule, Mean

SMILES: Cc1cc(N2CCc3cc(F)ccc3C2)cc(C)c1NC(=O)CC(C)(C)C [Compound A, N-[4-(6-fluoro-3,4-dihydro-1H-isoquinolin-2-yl)-2,6-dimethylphenyl]-3,3-dimethylbutanamide]
- Cmax (Cynomolgus (Vietnamese origin), cynomolgus monkey, plasma, po, 3 mg/kg, Group 2 (fed), 3 mg/kg capsule, Mean, read-out: Cmax): 65.4 ng/mL
- Tmax (Cynomolgus (Vietnamese origin), cynomolgus monkey, plasma, po, 3 mg/kg, Group 2 (fed), 3 mg/kg capsule, Mean, read-out: Tmax): 8 h
- AUC(0-t) [1]: 1120 ng·h/mL
- AUC(0-inf) [1]: 1180 ng·h/mL
- Cmax (Cynomolgus (Vietnamese origin), cynomolgus monkey, plasma, po, 3 mg/kg, Group 2 (fed), 3 mg/kg capsule, individual subjects, read-out: Cmax): 50.4 ng/mL
- AUC(0-t) [2]: 1490 ng·h/mL
- AUC(0-inf) [2]: 913 ng·h/mL
- Cmax (Cynomolgus, Vietnamese origin, cynomolgus monkey, plasma, po, 3 mg/kg, Group 1 (fasted), 3 mg/kg capsule, Mean, read-out: Cmax): 55.7 ng/mL
- Tmax (Cynomolgus, Vietnamese origin, cynomolgus monkey, plasma, po, 3 mg/kg, Group 1 (fasted), 3 mg/kg capsule, Mean, read-out: Tmax): 10.7 h
- Cmax (Cynomolgus, Vietnamese origin, cynomolgus monkey, plasma, po, 3 mg/kg, Group 1 (fasted), 3 mg/kg capsule, individual subjects, read-out: Cmax): 75.1 ng/mL
- Tmax (Cynomolgus, Vietnamese origin, cynomolgus monkey, plasma, po, 3 mg/kg, Group 1 (fasted), 3 mg/kg capsule, individual subjects, read-out: Tmax): 12 h
- t½λz (Group 1 (fasted), 3 mg/kg capsule, Mean): 9.7 h
- t½λz (Group 1 (fasted), 3 mg/kg capsule, individual subjects): 9.7 h
- AUClast [3]: 1940 ng·h/mL and 1650 ng·h/mL and 869 ng·h/mL
- Cmax [3]: 53.7 ng/mL and 38.4 ng/mL
- t½λz (Group 2 (fed), 3 mg/kg capsule, Mean): 10.1 h
- t½λz (Group 2 (fed), 3 mg/kg capsule, individual subjects): 10.1 h
- AUClast [4]: 2010 ng·h/mL and 1790 ng·h/mL
- Cmax [4]: 67.5 ng/mL and 78.2 ng/mL
- Tmax [4]: 4 h
- concentration at 0 h (cynomolgus monkey, plasma, oral, 3 mg/kg, Group 1 (fasted), 3 mg/kg, 0 h, N=3, read-out: Mean plasma concentration): 0 ng/mL
- concentration at 0.5 h (cynomolgus monkey, plasma, oral, 3 mg/kg, Group 1 (fasted), 3 mg/kg, 0.5 h, N=3, read-out: Mean plasma concentration): 0 ng/mL
- concentration at 1 h (cynomolgus monkey, plasma, oral, 3 mg/kg, Group 1 (fasted), 3 mg/kg, 1 h, N=3, read-out: Mean plasma concentration): 6.89 ng/mL
- concentration at 2 h (cynomolgus monkey, plasma, oral, 3 mg/kg, Group 1 (fasted), 3 mg/kg, 2 h, N=3): 15.3 ng/mL
- concentration at 4 h (cynomolgus monkey, plasma, oral, 3 mg/kg, Group 1 (fasted), 3 mg/kg, 4 h, N=3, read-out: Mean plasma concentration): 16.6 ng/mL
- concentration at 8 h (cynomolgus monkey, plasma, oral, 3 mg/kg, Group 1 (fasted), 3 mg/kg, 8 h, N=3, read-out: Mean plasma concentration): 49.9 ng/mL
- concentration at 12 h (cynomolgus monkey, plasma, oral, 3 mg/kg, Group 1 (fasted), 3 mg/kg, 12 h, N=3, read-out: Mean plasma concentration): 55.7 ng/mL
- concentration at 24 h (cynomolgus monkey, plasma, oral, 3 mg/kg, Group 1 (fasted), 3 mg/kg, 24 h, N=3): 42.5 ng/mL
- concentration at 48 h (cynomolgus monkey, plasma, oral, 3 mg/kg, Group 1 (fasted), 3 mg/kg, 48 h, N=3): 8.94 ng/mL
- concentration at 0 h (cynomolgus monkey, plasma, oral, 3 mg/kg, Group 2 (fed), 3 mg/kg, 0 h, N=3, read-out: Mean plasma concentration): 0 ng/mL
- concentration at 0.5 h (cynomolgus monkey, plasma, oral, 3 mg/kg, Group 2 (fed), 3 mg/kg, 0.5 h, N=3, read-out: Mean plasma concentration): 0.35 ng/mL
- concentration at 1 h (cynomolgus monkey, plasma, oral, 3 mg/kg, Group 2 (fed), 3 mg/kg, 1 h, N=3, read-out: Mean plasma concentration): 1.25 ng/mL
- concentration at 2 h (cynomolgus monkey, plasma, oral, 3 mg/kg, Group 2 (fed), 3 mg/kg, 2 h, N=3): 7.73 ng/mL
- concentration at 4 h (cynomolgus monkey, plasma, oral, 3 mg/kg, Group 2 (fed), 3 mg/kg, 4 h, N=3, read-out: Mean plasma concentration): 44.3 ng/mL
- concentration at 8 h (cynomolgus monkey, plasma, oral, 3 mg/kg, Group 2 (fed), 3 mg/kg, 8 h, N=3, read-out: Mean plasma concentration): 55.4 ng/mL
- concentration at 12 h (cynomolgus monkey, plasma, oral, 3 mg/kg, Group 2 (fed), 3 mg/kg, 12 h, N=3, read-out: Mean plasma concentration): 52.8 ng/mL
- concentration at 24 h (cynomolgus monkey, plasma, oral, 3 mg/kg, Group 2 (fed), 3 mg/kg, 24 h, N=3): 45 ng/mL
- concentration at 48 h (cynomolgus monkey, plasma, oral, 3 mg/kg, Group 2 (fed), 3 mg/kg, 48 h, N=3): 11.6 ng/mL
- concentration at 0 h (cynomolgus monkey, plasma, oral, 3 mg/kg, fed, 3 mg/kg capsule, plasma, 0 h, individual animals, read-out: Concentration): 0 ng/mL
- concentration at 1 h (cynomolgus monkey, plasma, oral, 3 mg/kg, fed, 3 mg/kg capsule, plasma, 1 h, individual animals, read-out: Concentration): 1.05 ng/mL
- concentration at 8 h (cynomolgus monkey, plasma, oral, 3 mg/kg, fed, 3 mg/kg capsule, plasma, 8 h, individual animals, read-out: Concentration): 50.4 ng/mL
- concentration at 12 h (cynomolgus monkey, plasma, oral, 3 mg/kg, fed, 3 mg/kg capsule, plasma, 12 h, individual animals, read-out: Concentration): 48.8 ng/mL
- AUC(0-inf) (cynomolgus monkey, plasma, po, 3 mg/kg, Group 1 (fasted), 3 mg/kg capsule, individual subjects): 913 ng·h/mL
- AUC(0-t) [5]: 1640 ng·h/mL
- AUC(0-inf) [5]: 1180 ng·h/mL
- concentration at 0 h (cynomolgus monkey, plasma, po, 3 mg/kg, fasted, 3 mg/kg oral, plasma, 0 h, individual animals, read-out: Concentration): 0 ng/mL
- concentration at 0.5 h (cynomolgus monkey, plasma, po, 3 mg/kg, fasted, 3 mg/kg oral, plasma, 0.5 h, individual animals, read-out: Concentration): 0 ng/mL
- concentration at 4 h (cynomolgus monkey, plasma, po, 3 mg/kg, fasted, 3 mg/kg oral, plasma, 4 h, individual animals, read-out: Concentration): 12.6 ng/mL
- concentration at 8 h (cynomolgus monkey, plasma, po, 3 mg/kg, fasted, 3 mg/kg oral, plasma, 8 h, individual animals, read-out: Concentration): 38.4 ng/mL
- concentration at 12 h (cynomolgus monkey, plasma, po, 3 mg/kg, fasted, 3 mg/kg oral, plasma, 12 h, individual animals, read-out: Concentration): 38.3 ng/mL
- Concentration (fasted, 3 mg/kg oral, plasma, 0 h, individual animals): 0 ng/mL
- Concentration (fasted, 3 mg/kg oral, plasma, 0.5 h, individual animals): 0 ng/mL
- Concentration (fasted, 3 mg/kg oral, plasma, 1 h, individual animals, 3 mg/kg): 15.6 ng/mL and 5.07 ng/mL and 0 ng/mL
- Concentration (fasted, 3 mg/kg oral, plasma, 2 h, individual animals, 3 mg/kg): 6.00 ng/mL and 23.5 ng/mL and 16.4 ng/mL
- Concentration (fasted, 3 mg/kg oral, plasma, 4 h, individual animals, 3 mg/kg): 19.2 ng/mL and 18.1 ng/mL
- Concentration (fasted, 3 mg/kg oral, plasma, 8 h, individual animals, 3 mg/kg): 63.1 ng/mL and 48.1 ng/mL
- Concentration (fasted, 3 mg/kg oral, plasma, 12 h, individual animals, 3 mg/kg): 75.1 ng/mL and 53.7 ng/mL
- Concentration (fasted, 3 mg/kg oral, plasma, 24 h, individual animals, 3 mg/kg): 22.5 ng/mL and 53.2 ng/mL and 51.8 ng/mL
- Concentration (fasted, 3 mg/kg oral, plasma, 48 h, individual animals, 3 mg/kg): 3.13 ng/mL and 12.5 ng/mL and 11.2 ng/mL
- Concentration (fed, 3 mg/kg capsule, plasma, 0 h, individual animals): 0 ng/mL
- Concentration (fed, 3 mg/kg capsule, plasma, 0.5 h, individual animals, 3 mg/kg): 1.05 ng/mL and 0 ng/mL (2×)
- Concentration (fed, 3 mg/kg capsule, plasma, 1 h, individual animals, 3 mg/kg): 1.21 ng/mL and 1.48 ng/mL
- Concentration (fed, 3 mg/kg capsule, plasma, 2 h, individual animals, 3 mg/kg): 11.8 ng/mL and 0 ng/mL and 11.4 ng/mL
- Concentration (fed, 3 mg/kg capsule, plasma, 4 h, individual animals, 3 mg/kg): 34.8 ng/mL and 19.9 ng/mL and 78.2 ng/mL
- Concentration (fed, 3 mg/kg capsule, plasma, 8 h, individual animals, 3 mg/kg): 52.2 ng/mL and 63.7 ng/mL
- Concentration (fed, 3 mg/kg capsule, plasma, 12 h, individual animals, 3 mg/kg): 67.5 ng/mL and 42.2 ng/mL
- Concentration (fed, 3 mg/kg capsule, plasma, 24 h, individual animals, 3 mg/kg): 24.2 ng/mL and 61.9 ng/mL and 48.8 ng/mL
- Concentration (fed, 3 mg/kg capsule, plasma, 48 h, individual animals, 3 mg/kg): 4.26 ng/mL and 16.9 ng/mL and 13.5 ng/mL
